Legend:
SAMHD1 = system: T1, SAMHD1; assay: IEX-HPLC assay of SAMHD1 triphosphohydrolase activity; format: biochemical, human; settings: 0.2 mM GTP activated, 1 mM dATP, three enzyme concentrations 2.5, 5, 7.5 µM
T1 construct: The catalytic domain of SAMHD1 (residues 115 to 626) was expressed and purified as previously described; made in house
Protocol: IEX-HPLC assay of SAMHD1 Triphosphohydrolase activity
In a typical assay 2-10 µM SAMHD1 was incubated with 0.2 mM GTP activator and 1mM dNTP as substrate in Reaction buffer, 20mM Tris-HCl, 150 mM NaCl, 5 mM MgCl2, 2 mM TCEP (pH 7.5). The reaction was allowed to proceed and samples withdrawn at timed intervals up to 5 minutes and terminated by 10 fold dilution into 18.0% acetonitrile, 25mM Tris-HCl, 1 mM EDTA pH 8.0. The nucleotide hydrolysis reactions were analysed by anion exchange HPLC using a DNA-PAC100 (4 x 50mm) column (Dionex). The column was equilibrated at 30°C at 1 mL/min in 25mM Tris-HCl, 0.5% acetonitrile pH 8.0 (Buffer A). […] Absorbance data from the column eluent was continuously monitored between 200-400nm (2 nm interval) using MD-2010 photodiode array detector (JASCO). Peak integration of the absorbance data recorded at 260 nm was used to quantify the amount of substrate and products during at each time point of the reaction. Initial rates of dNTP hydrolysis were determined from the linear part of plots of substrate against time.
Supplementary Figure S1 - HPLC traces of 0.2 mM GTP activated SAMHD1 hydrolysis of 1 mM dATP. […] Inset, kcat was determined by linear regression of Kapp over three enzyme concentrations, 2.5 µM, 5 µM and 7.5
µM. Error bars represent the SEM of three independent measurements recorded at each substrate concentration. […]

[1] = target: T2, SAMHD1 (residues 115 to 626) (Homo sapiens, UniProt Q9Y3Z3); assay: Continuous enzyme-coupled (Ppx1 / MDCC-PBP) real-time assay of SAMHD1 triphosphohydrolase activity; format: biochemical; settings: GTP activator 0.2 mM, 25°C
T2 construct: The catalytic domain of SAMHD1 (residues 115 to 626) was expressed and purified as previously described; made in house
Protocol: The steady-state kinetics of SAMHD1 were determined by a coupled-enzyme assay using Ppx1 and a fluorescent phosphate biosensor, MDCC-PBP. The reactions were set up in 20-μl volumes in 384-well low-protein-binding microplates (Corning, USA), and the time-dependent fluorescence signal was measured using a Tecan Saffire^2 multiwell plate reader (Männedorf, Switzerland). Solutions containing SAMHD1 (residues 115 to 626), Ppx1, MDCC-PBP, an activator, and an inhibitor (if present) were incubated for 5 min at 25°C before the reaction was initiated by the addition of the substrate. The final concentrations were 100 nM SAMHD1, 10 nM Ppx1, and 40 μM MDCC-PBP. Depending on the experiment, the concentration of the substrate, the activator, or the inhibitor varied while the substrate and/or the activator was held constant at 1 mM and 0.2 mM, respectively. The fluorescence intensity was recorded at 430 nm for excitation and 465 nm for emission wavelengths, with a 7-nm slit width, at 8- to 10-s time intervals over a period of 10 to 30 min. The standard curves were obtained by incubating 40 μM MDCC-PBP with different concentrations of phosphate (Pi) and measuring the fluorescence, as discussed above. The fluorescence response was linear and in the range of 0 to 20 μM Pi.
The steady-state rates were obtained from the time courses of Pi formation by linear regression of the data points in the linear phase of the reaction. Rates were divided by the SAMHD1 concentration and were plotted versus the activator, substrate, or inhibitor concentration. Apparent dissociation constants for the activator (KA) or the substrate binding (KS) and the catalytic constant (kcat) were determined by nonlinear least-squares fitting using either a hyperbolic or a Hill-function equation in the software package GraFit 7.0.3 (Erithacus Software, United Kingdom) ([22]). […] Data from the three different experiments were analyzed by a least-squares fit using the equation for competitive inhibition. The fits for the three data sets yielded invariant values for the inhibition constants (Ki), supporting a competitive mode of inhibition. All measurements were performed in triplicate in the reaction buffer.

T2 sequence (Q9Y3Z3 115-626): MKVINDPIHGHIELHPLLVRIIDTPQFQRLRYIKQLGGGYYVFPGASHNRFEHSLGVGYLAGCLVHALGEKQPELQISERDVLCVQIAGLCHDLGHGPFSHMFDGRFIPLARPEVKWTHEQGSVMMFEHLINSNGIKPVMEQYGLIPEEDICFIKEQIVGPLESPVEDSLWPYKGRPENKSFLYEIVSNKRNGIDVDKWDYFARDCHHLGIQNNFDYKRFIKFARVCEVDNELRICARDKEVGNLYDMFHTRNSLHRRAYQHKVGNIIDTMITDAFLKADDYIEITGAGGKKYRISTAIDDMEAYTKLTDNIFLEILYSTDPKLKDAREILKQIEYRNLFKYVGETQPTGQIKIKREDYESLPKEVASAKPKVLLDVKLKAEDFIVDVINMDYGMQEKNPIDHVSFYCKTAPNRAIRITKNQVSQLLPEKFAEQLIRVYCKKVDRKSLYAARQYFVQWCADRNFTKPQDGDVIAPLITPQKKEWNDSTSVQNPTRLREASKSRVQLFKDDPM

Nc1ncnc2c1ncn2[C@H]1C[C@H](O)[C@@H](COP(=O)(O)OP(=O)(O)OP(=O)(O)O)O1 [dATP]
kcat (SAMHD1): 0.99 s⁻¹ | KS, apparent dissociation constant for substrate binding [1]: 42.1 ± 6.9 µM | kcat [1]: 0.94 ± 0.06 s⁻¹
